Source: article PMC11597207, “Synthesis and Anti-Inflammatory and Analgesic Potentials of Ethyl 2-(2,5-Dioxo-1-Phenylpyrrolidin-3-yl)-2-Methylpropanoate” (Pharmaceuticals, 2024)
Values joined by “and” are separate entries in the source; they are usually repeats but may differ in a detail not shown here. Equal entries are not always repeated.

Experiments:
[1] = tested on: carrageenan-induced paw edema; assay: Carrageenan-induced paw edema model; format: in vivo; conditions: mice
Procedure: The anti-inflammatory activity of MAK01 was evaluated through a carrageenan-induced paw edema model. The mice, with weights ranging from 25 to 30 g, were separated into five distinct groups, these being Vehicle Group 1, Aspirin Group 2, and different concentrations of MAK01 in Groups 3–5. Each of these groups comprised five mice. The negative control group in the experiment received a specific solution comprising normal saline, DMSO, and Tween-80. The mixture contained 94% normal saline, 5% DMSO, and 1% Tween-80, delivered at a concentration of 10 mL per kg. In contrast, the positive control group in the assay received the comparator aspirin at a precise dose of 10 mg/kg. The test samples were administered at doses of 10 mg/kg, 20 mg/kg, and 30 mg/kg, given intra-peritoneally. After 30 min, a 2% carrageenan suspension (0.2 mL) was administered to each mouse in every group via a subcutaneous injection in the hind paw. In the experiment, a plethysmometer was used to precisely measure inflammation and edema. These measurements were taken at multiple time points both prior to and following the carrageenan administration. Specifically, the readings were recorded at 1, 2, 3, 4, and 5 h intervals to monitor the progress of the inflammatory response and paw swelling. These obtained results were then compared against the outcomes from the negative control group. The gathered data from the experiment, relating to the impact of the newly synthesized compounds on paw edema, were carefully processed to derive the percentage of edema inhibition. Using the below equation, the percent inhibition was calculated. % Inhibition=Ce−Te/Ce×100
In the formula, ‘Ce’ refers to the control group paw edema volume, while ‘Te’ denotes test groups’ paw edema volume.

[2] = tested on: mice; assay: Acute toxicity in mice; format: in vivo
Procedure: The synthesized compound was assessed for its acute toxicity using mice sourced from the National Institute of Health in Pakistan. The mice for the experiment were categorized into several groups. Some groups were designated to receive the test samples, and another was set as a control group. […]. These compounds were first dissolved in normal saline before being administered. […]. The mice were monitored for a period of 24 h to 4 weeks following the administration of the pivalate-based Michael product. The study closely observed the mice for any irregular behavior, such as ataxia, aggressive reactions, and potential allergic symptoms, among others. Furthermore, any harmful outcomes or lethality were also recorded. These observations and recorded adverse events were compared between the group treated with the test compound and the control group. These comparisons offer valuable insights into the toxicity levels of the newly synthesized compounds [47].

[3] = molecular target: T1, 5-LOX (Homo sapiens, UniProt P09917); assay: 5-LOX inhibitory assay; format: biochemical
T1 construct: purchased Cayman Chemical Batch No.: A3457
T1 sequence (P09917 1-674): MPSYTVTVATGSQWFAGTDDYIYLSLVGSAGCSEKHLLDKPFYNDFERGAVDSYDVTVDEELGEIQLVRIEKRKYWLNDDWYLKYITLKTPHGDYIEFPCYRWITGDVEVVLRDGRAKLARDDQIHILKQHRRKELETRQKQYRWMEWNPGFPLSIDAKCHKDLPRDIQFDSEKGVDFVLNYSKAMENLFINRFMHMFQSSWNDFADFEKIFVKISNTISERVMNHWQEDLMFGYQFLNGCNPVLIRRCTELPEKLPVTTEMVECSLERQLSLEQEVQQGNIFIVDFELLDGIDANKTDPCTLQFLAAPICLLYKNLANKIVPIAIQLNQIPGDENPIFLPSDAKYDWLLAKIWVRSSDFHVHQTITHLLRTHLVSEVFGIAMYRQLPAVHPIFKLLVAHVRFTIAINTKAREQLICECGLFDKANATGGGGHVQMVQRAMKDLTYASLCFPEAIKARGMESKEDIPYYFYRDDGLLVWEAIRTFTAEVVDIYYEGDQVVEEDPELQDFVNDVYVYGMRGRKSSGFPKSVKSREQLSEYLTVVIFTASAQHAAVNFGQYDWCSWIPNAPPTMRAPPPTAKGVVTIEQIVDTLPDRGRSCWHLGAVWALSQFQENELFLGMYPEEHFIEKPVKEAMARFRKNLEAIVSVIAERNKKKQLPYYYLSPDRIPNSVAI
Procedure: The activity of MAK01 against the 5-LOX enzyme was investigated using a human recombinant form of 5-LOX [47]. To begin the 5-LOX activity assay, a 10,000 U/mL solution of 5-LOX was prepared in a phosphate buffer with a pH of 6.3. A range of concentrations of the test compounds in the same buffer were prepared for assay. As a substrate for 5-LOX, linoleic acid (80 mM) was diluted with ethyl alcohol and used in the assay. The experiment involved mixing the same amount of both the enzyme solution and the test sample, such as mixing 0.25 mL 5-LOX with 0.25 mL of the compound, both dissolved in buffer. The mixing was followed by incubation at 25 °C for 5 to 10 min. Subsequently, 0.10 mL of the linoleic acid solution was added and allowed to incubate for another 5 min. The absorbance was measured using a UV–visible spectrophotometer at a wavelength of 234 nm, and the percent inhibition was calculated based on the absorbance readings. The same procedure was repeated for different concentrations of the test samples. Zileuton, as a reference drug, was used in comparisons. Using the following formula, the percent inhibition for each sample was calculated: % Inhibition=Abs. of Control−Abs. of Sample/Abs. of Control×100

SMILES: CCOC(=O)C(C)(C)C1CC(=O)N(c2ccccc2)C1=O (stereo not shown) [MAK01, ethyl 2-(2,5-dioxo-1-phenylpyrrolidin-3-yl)-2-methylpropanoate]
- Paw Edema Inhibition in Percent ([1]; dose 10 mg/kg, 1 h): 30.3 ± 0.77 ^ns %
- Paw Edema Inhibition in Percent ([1]; dose 10 mg/kg, 2 h): 33.34 ± 0.98 %
- Paw Edema Inhibition in Percent ([1]; dose 10 mg/kg, 3 h): 19.62 ± 0.64 %
- Paw Edema Inhibition in Percent ([1]; dose 10 mg/kg, 4 h): 31.44 ± 0.74 %
- Paw Edema Inhibition in Percent ([1]; dose 10 mg/kg, 5 h): 31.22 ± 0.84 %
- Paw Edema Inhibition in Percent ([1]; dose 20 mg/kg, 1 h): 34.7 ± 0.74 ^ns %
- Paw Edema Inhibition in Percent ([1]; dose 20 mg/kg, 2 h): 34.7 ± 0.74% and 34.54 ± 0.76 %
- Paw Edema Inhibition in Percent ([1]; dose 20 mg/kg, 3 h): 21.42 ± 0.64 %
- Paw Edema Inhibition in Percent ([1]; dose 20 mg/kg, 4 h): 29.52 ± 0.63 %
- Paw Edema Inhibition in Percent ([1]; dose 20 mg/kg, 5 h): 31.85 ± 0.32 %
- Paw Edema Inhibition in Percent ([1]; dose 30 mg/kg, 1 h): 38.74 ± 0.81 ^ns %
- Paw Edema Inhibition in Percent ([1]; dose 30 mg/kg, 2 h): 39.20 ± 0.86 %
- Paw Edema Inhibition in Percent ([1]; dose 30 mg/kg, 3 h): 34.4 ± 0.64 %
- Paw Edema Inhibition in Percent ([1]; dose 30 mg/kg, 4 h): 37.64 ± 0.86 %
- Paw Edema Inhibition in Percent ([1]; dose 30 mg/kg, 5 h): 40.58 ± 0.84% and 40.58%
- Lethal dose ([2]; both, mouse, in vivo, po): ~1000 mg per kg of body weight
- Signs of toxicity ([2]; mice, oral, doses higher than 1000 mg per kg): distress, agitation, convulsions, discomfort, and abnormal behavior
- IC50 [3]: 363 µM
- 5-LOX percent inhibition ([3]; 62.50 μg/mL): 45%
- inhibition at 62.5 µg/mL ([3]; 62.50 μg/mL, read-out: 5-LOX percent inhibition): 44.8%
- 5-LOX percent inhibition ([3]; 125 μg/mL): 52%
- inhibition at 125 µg/mL ([3]; 125 μg/mL, read-out: 5-LOX percent inhibition): 51.9%
- 5-LOX percent inhibition ([3]; 250 μg/mL): 60%
- inhibition at 250 µg/mL ([3]; 250 μg/mL, read-out: 5-LOX percent inhibition): 60.2%
- 5-LOX percent inhibition ([3]; 500 μg/mL): 70%
- inhibition at 500 µg/mL ([3]; 500 μg/mL, read-out: 5-LOX percent inhibition): 69.9%
- 5-LOX percent inhibition ([3]; 1000 μg/mL): 79%
- inhibition at 1000 µg/mL ([3]; 1000 μg/mL, read-out: 5-LOX percent inhibition): 79.4%
